Test results: patent US20200123104A1, “PHARMACEUTICAL AGENT THAT BINDS THE P2X7 RECEPTOR” (Indiana University Research and Technology Corporation, priority 2017, published 2020)
Where “and” joins values, the source holds several entries; their conditions need not be identical. Identical values can stand only once.

Key:
P2X7 receptor [1] = target: T1, P2X7 receptor (Homo sapiens, UniProt Q99572); conditions: read-out: P2X7 receptor affinity (KB) (converted); cited from earlier work
T1 sequence (Q99572 1-595): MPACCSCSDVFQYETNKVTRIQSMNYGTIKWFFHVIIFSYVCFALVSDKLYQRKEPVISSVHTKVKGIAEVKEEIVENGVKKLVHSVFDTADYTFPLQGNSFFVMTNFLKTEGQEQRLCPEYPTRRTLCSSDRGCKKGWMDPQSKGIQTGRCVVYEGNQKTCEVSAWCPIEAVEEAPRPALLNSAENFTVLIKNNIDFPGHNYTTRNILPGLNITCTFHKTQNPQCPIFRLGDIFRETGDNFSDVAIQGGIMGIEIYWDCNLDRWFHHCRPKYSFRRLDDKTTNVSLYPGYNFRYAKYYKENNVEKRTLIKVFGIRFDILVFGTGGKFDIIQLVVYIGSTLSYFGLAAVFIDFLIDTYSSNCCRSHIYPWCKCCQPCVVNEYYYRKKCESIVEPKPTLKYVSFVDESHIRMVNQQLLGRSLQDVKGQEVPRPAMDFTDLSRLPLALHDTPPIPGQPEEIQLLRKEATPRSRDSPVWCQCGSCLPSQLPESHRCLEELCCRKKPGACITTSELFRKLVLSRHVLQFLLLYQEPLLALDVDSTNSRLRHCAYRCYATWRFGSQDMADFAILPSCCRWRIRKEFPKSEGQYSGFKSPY

P2X7 receptor [2] = target: T1, P2X7 receptor; experiment: Competitive binding with [11C]GSK1482160 as reference tracer, membrane homogenate of HEK cells transfected with the human P2X7 gene; set-up: host or cells: HEK (human embryonic kidney) cells, membrane homogenate; conditions: HEK-hP2X7 membrane homogenate, [11C]GSK1482160 reference tracer
Experimental: Samples and control wells are run in triplicate at each concentration. After equilibrium has been reached, separation of bound from free [^11C]GSK1482160 radioligand is performed using a 96-well filtration apparatus. To estimate receptor association (kon) and dissociation (koff) rates, an association/dissociation kinetic experiment is performed. Association is measured as a function of time using cell membrane homogenate from HEK-P2X7 cells incubated with 2-4 concentrations of the ^18F-radioligand. Dissociation is measured in the presence of excess authentic standard once at steady state according to published methods. Radioactivity for both studies is measured on the filters (or filter plates) using a Perkin-Elmer TopCount Data is analyzed and plotted using GraphPad Prism to obtain Bmax and Kd values for the compound.

[3] = target: T2, human P2X7R (HEK293-hP2X7R) (Homo sapiens, UniProt Q99572); experiment: Saturation and kinetic radioligand binding of 11C-GSK1482160 to HEK293-hP2X7R
T2 construct: expressed in transfected cells; host or cells: HEK293
T2 sequence (Q99572 1-595): T1 sequence (Q99572 1-595)
Experimental: Receptor density (Bmax) is determined by a saturation approach as employed with each P2X7-receptor ligand employing [^11C]GSK1482160 as a convenient reference ligand that is expected to bind in the same region of the receptor. […] Samples and control wells are run in triplicate at each concentration. After equilibrium has been reached, separation of bound from free [^11C]GSK1482160 radioligand is performed using a 96-well filtration apparatus. To estimate receptor association (kon) and dissociation (koff) rates, an association/dissociation kinetic experiment is performed. Association is measured as a function of time using cell membrane homogenate from HEK-P2X7 cells incubated with 2-4 concentrations of the ^18F-radioligand. Dissociation is measured in the presence of excess authentic standard once at steady state according to published methods. Radioactivity for both studies is measured on the filters (or filter plates) using a Perkin-Elmer TopCount Data is analyzed and plotted using GraphPad Prism to obtain Bmax and Kd values for the compound.

[4] = in vivo; cited from earlier work

Q: Which results are given for `[11CH3]N1C(=O)CC[C@H]1C(=O)NCc1cccc(C(F)(F)F)c1Cl` [[^11C]GSK1482160]?
A: Kb (P2X7 receptor [1]): 0.0959 µM and 0.095 µM; Ki (P2X7 receptor [2]): 0.00514 ± 0.00085 µM; Kd ([3]; read-out: K): 0.00115 ± 0.00012 µM; koff ([3]; read-out: dissociation constant koff (converted)): 0.00425 s⁻¹; crossing of the blood-brain barrier [4]: readily crosses the blood-brain barrier
